{"source": "patent US9265808B2", "about": "“Compositions for alleviating inflammation and oxidative stress in a mammal” (priority 2004, dated 2016)", "key": {"[1]": {"experiment": "Blood pressure of human subjects", "details": "Subject #2, ATENOLOL 25 mg/day alone", "protocol": "The approximate daily dosage of each of the components of the herb-containing composition was as follows: B. monnieri extract (200 mg), Milk Thistle extract 70-80% (300 mg), Ashwagandha powder (200 mg), Turmeric extract (95%) (100 mg), Gotu kola powder (200 mg), Aloe vera powder (200 mg), Green tea (98% Polyphenols 45% EGCG) (100 mg), and Ginko biloba leaf extract (200 mg).\nThe approximate daily dosage of each of the components of the herb-containing composition was as follows: B. monnieri extract (134 mg), Milk Thistle extract 70-80% (200 mg), Ashwagandha powder (134 mg), Turmeric extract (95%) (67 mg), Gotu kola powder (134 mg), Aloe vera powder (134 mg), Green tea (98% Polyphenols, 45% EGCG) (67 mg), and Ginko biloba leaf extract (134 mg)."}, "HO-1 [2]": {"test_system": "HO-1", "experiment": "Protandim®-induced HO-1 protein in presence of signaling pathway inhibitors, SK-N-MC cells", "format": "cell-based, human", "details": "for decrease of Protandim®-mediated increase in HO-1 expression in presence of inhibitor: 20 μM SB203580 or 1 μM rottlerin 30 min", "method": "To identify the signaling pathway(s) involved in HO-1 promoter induction by Protandim®, different pharmacological inhibitors that specifically block each of the following pathways were used: 5-(2-benzothiazolyl)-3-ethyl-2-[2-(methylphenylamino) ethenyl]-1-phenyl-1H-benzimidazolium iodide (Akt inhibitor IV) for Akt, LY294002 for PI3-kinase, SP600125 for JNK, U0126 for MEK/ERK, SB203580 for p38MAPK, and rottlerin for PKCδ. SK-N-MC cells were preincubated in the presence of 250 nM Akt inhibitor IV, 30 μM LY294002, 1 μM rottlerin, 10 μM U0126, 20 μM SB203580, or 20 μM SP600125 for 30 min followed by exposure to 20 μg/ml Protandim® for 24 h. Cell lysates were electrophoresed and immunoblotted for HO-1. The blots were then reprobed with the antibody for β-actin. […] The intensities of the bands were quantified by densitometry using Fluor-S MultiImager and Quantity One software from Bio-Rad. HO-1 levels were corrected for β-actin expression."}, "HO-1 [3]": {"test_system": "HO-1", "experiment": "HO-1 protein by Western blot in SK-N-MC cells", "format": "cell-based, human", "details": "ethanolic extracts at maximum doses of Table 10 (Protandim® 20 μg/ml)", "description": "(§1) After treatment with Protandim® extracts, MIN6 and SK-N-MC cells were washed with ice-cold PBS. Cells were lysed with mammalian protein extraction reagent (Pierce, Rockford, Ill., USA) containing phosphatase inhibitors and protease inhibitor cocktail. […] Diluted samples containing equal amounts of protein were mixed with 2× Laemmli sample buffer and subjected to electrophoresis on 12% SDS-polyacrylamide gels. After transfer to polyvinylidene difluoride membranes, the membranes were blocked with TBST [20 mM Tris-HCl (pH 7.9), 8.5% NaCl, and 0.1% Tween 20] containing 5% nonfat dry milk at room temperature for 1 h and exposed to primary antibodies (1:1000) in TBST containing 5.0% BSA at 4° C. overnight. After being washed in blocking solution, the membranes were exposed to secondary antibodies conjugated to alkaline phosphatase and developed with CDP-Star reagent (New England Biolabs, Beverly, Mass., USA). The intensity of the protein bands was visualized using Fluor-S Multi-Imager and Quantity One software from Bio-Rad. […]\n(§2) Cell lysates were processed for Western blot analysis of HO-1, and the blots reprobed for β-actin. The intensities of bands were quantitated by scanning in a MultiImager using Quantity One software (Bio-Rad), and HO-1 expression was corrected for β-actin levels."}, "HO-1 promoter [4]": {"test_system": "HO-1 promoter", "experiment": "HO-1 promoter luciferase reporter assay in MIN6 cells", "format": "cell-based, mouse", "details": "concentration present in the maximum dose of Protandim® (40 μg/ml)", "protocol": "(§3) The induction of HO-1 by Protandim® was tested by transient transfection of its promoter linked to the luciferase reporter gene in MIN6 cells, a mouse insulinoma cell line, and in SK-N-MC cells, a human neuroblastoma cell line, as reported in Velmurugan, K. et al., “Synergistic induction of heme oxygenase-1 by the components of the antioxidant supplement Protandim,” Free Radical Biology & Medicine, 46: 430-440 (2009), the entire disclosure of which is incorporated herein by reference.\n(§4) The alcohol extract of Protandim® was prepared by shaking 675 mg of Protandim with 16.875 ml of 95% ethanol overnight at 4° C. and centrifuging at 5000 rpm (4° C.) for 5 min, and the extract (40 mg/ml) was stored at −80° C. For studies on synergy, the individual components present in 675 mg of Protandim® were extracted in the same volume of alcohol by a similar procedure. Parallel preparations of Protandim® extracts were also prepared with one of the components omitted. […] Controls were treated with the same volume of alcohol used in the treated groups. […]\n(§5) After freezing and thawing, the lysates were centrifuged (10,600 g; 20 min) to collect the supernatant. Firefly luciferase and Renilla luciferase activities from transfected cells were measured using the Dual-Glo Luciferase Assay System (Promega). […]"}, "HO-1 promoter [5]": {"test_system": "HO-1 promoter", "experiment": "HO-1 promoter luciferase reporter assay in SK-N-MC cells", "format": "cell-based, human", "details": "concentration present in the maximum dose of Protandim® (20 μg/ml)", "protocol": "as §3, §4, §5"}, "HO-1 [6]": {"test_system": "HO-1", "experiment": "HO-1 protein by Western blot in MIN6 cells", "format": "cell-based, mouse", "details": "ethanolic extracts at maximum doses of Table 10 (Protandim® 40 μg/ml)", "description": "as §1, §2"}, "[7]": {"details": "pH of 1.0; cited from earlier work"}, "Nrf2": {"test_system": "Nrf2", "experiment": "AREc32 bioassay for Nrf2 activation", "text": "The assay for Nrf2 activation is based on the AREc32 cell line, developed by Dr. C. R. Wolf and colleagues of the University of Dundee, Scotland, as described in Wang, X. J. et al., “Generation of a stable antioxidant response element-driven reporter gene cell line and its use to show redoxdependent activation of Nrf2 by cancer chemotherapeutic agents,” Cancer Res. 66, 10983-10994 (2006); Hybertson, B. M. et al., “Oxidative stress in health and disease: the therapeutic potential of Nrf2 activation,” Molecular Aspects of Medicine, 32: 234-246 (2011), the entire disclosure of each of which is incorporated herein by reference. The AREc32 cell line is a stable transfectant derived from the MCF7 human breast cancer cell line. It contains a promoter with eight copies of the rat glutathione-S-transferase-A2 Antioxidant Response Element (ARE) and the SV40 promoter sequence upstream of a firefly luciferase reporter gene.\nBriefly, AREc32 cells were grown in Opti-MEM (GIBCO, Carlsbad, Calif.) supplemented with 4% fetal bovine serum (FBS, GIBCO) and 1% Antibiotic-Antimycotic (GIBCO) at 37° C. and in a 10% CO 2-supplemented air atmosphere. The cells were seeded at 1% to 5% of confluent cell density in T75 tissue culture flasks and cultivated until they approached confluence. The medium was aspirated off and the adherent cells trypsinized with 1 ml of 1× Trypsin-EDTA solution (GIBCO) for 10 min. Ten milliliters of medium was added to the flask and the cells transferred to a 50 ml centrifuge tube and centrifuged at 1000 rpm for 5 min at room temperature. Cells were washed once with 10 ml of medium, then resuspended in 10 ml of medium. Cells were counted using a hemocytometer and diluted to a concentration of 50,000 cells/ml. Four hundred microliters of this cell suspension was seeded into each well of a 24-well plate (i.e. 20,000 cells/well). Seeded plates were then returned to the incubator for 24 h.\nAfter 18-24 h the cells were reattached and growing, and ready for treatment with samples with putative Nrf2 activating activity. […] Vehicles used were aqueous or organic solvents such as ethanol or DMSO, and appropriate vehicle controls were included. The cells were then returned to the incubator for 18 h. All operations up to this point must be conducted under sterile conditions.\nAfter 24 h the cells were checked under the microscope for any abnormalities or detachment. The medium was aspirated and the cells were washed with phosphate buffered saline, pH 7.4 (100 μl/well). Following aspiration of the wash solution, the cells were lysed by application of 0.1 M potassium phosphate buffer, pH 7.8, containing 1% Triton X-100, 2 mM dithiothreitol, 2 mM EDTA, 10% glycerol and 3.5 mM sodium pyrophosphate (100 μl/well). The plate was incubated at 4° C. for 20 min. Lysate (20 μl from each well in a new 12×75 mm glass test tube) was assayed for luciferase activity using a Monolight 3010 autoinject luminometer (Analytical Luminescence Laboratory, Ann Arbor, Mich.), automatically injecting 50 of Luciferase Assay Buffer after background measurement. Luciferase Assay Buffer was prepared by mixing 9 ml of Solution A (15 mM Tricine, pH 7.8, containing 1.5 mM ATP, 7.5 mM MgSO 4, and 5 mM dithiothreitol) with 1 ml of Solution B 10 mM D-luciferin). After a 4 delay following injection, luminescence was measured for 10 s. Relative Light Units (RLU) were recorded for the contents of each well. Fold Induction (FI) of luciferase activity was calculated by dividing the RLU obtained for the test well by the average RLU obtained for control wells (which received no putative Nrf2 activator). Each assay or control was performed in duplicate. Parameters noted were the concentration of test substance providing maximal fold induction of luciferase (Cmax), and the maximal fold induction observed (FImax).\nThe AREc32 cells were prepared as in Example 7. After 18-24 h the cells were reattached and growing, and ready for treatment with samples with putative Nrf2 activating activity. […]"}, "[8]": {"details": "SK-N-MC, 250 nM Akt inhibitor IV, 30 μM LY294002, 10 μM U0126, 20 μM SP600125, 30 min, then 20 μg/ml Protandim® 24 h"}, "[9]": {"details": "SK-N-MC, then 20 μg/ml Protandim® 24 h"}, "[10]": {"details": "AREc32 cells, biphasic induction"}}, "note": "Read-outs that look alike come from different tables or passages of the source."}
{"smiles": "CC(C)NCC(O)COc1ccc(CC(N)=O)cc1", "note": "(stereo not shown) [ATENOLOL]", "values": [{"measurement": "lowest diastolic measurement", "setting": "[1]", "value": 91}]}
{"smiles": "CC[n+]1c(/C=C/N(C)c2ccccc2)n(-c2ccccc2)c2ccc(-c3nc4ccccc4s3)cc21", "note": "[Akt inhibitor IV, 5-(2-benzothiazolyl)-3-ethyl-2-[2-(methylphenylamino)ethenyl]-1-phenyl-1H-benzimidazolium iodide]", "values": [{"measurement": "effect of inhibitor on Protandim®-induced increase in HO-1 protein levels", "setting": "HO-1 [2]; [8]", "value": "significant (p<0.001) decrease"}]}
{"smiles": "COc1cc(/C=C/C(=O)CC(=O)/C=C/c2ccc(O)c(OC)c2)ccc1O", "note": "[Curcumin]", "values": [{"measurement": "increase of HO-1 protein level", "setting": "HO-1 [3]", "value": 6, "unit": "fold"}, {"measurement": "HO-1 promoter induction by individual ingredient", "setting": "HO-1 promoter [4]", "value": 36, "unit": "%"}, {"measurement": "HO-1 promoter induction by individual ingredient", "setting": "HO-1 promoter [5]", "value": 300, "unit": "%"}, {"measurement": "increase of HO-1 protein level", "setting": "HO-1 [6]", "value": 6, "unit": "fold"}]}
{"smiles": "N[C@@H](CCC(=O)N[C@@H](CS)C(=O)NCC(=O)O)C(=O)O", "note": "[GSH, L-γ-glutamyl-L-cysteinyl-glycine]", "values": [{"measurement": "rate constant K2 against the hydroxyl radical", "setting": "[7]", "value": "8.8×10^9"}]}
{"smiles": "CC(=O)N[C@@H](CS)C(=O)O", "note": "[NAC, N-Acetyl Cysteine]", "values": [{"measurement": "rate constant K2 against the hydroxyl radical", "setting": "[7]", "value": "1.36e+10", "unit": "M⁻¹ s⁻¹"}]}
{"smiles": "C[S+]([O-])c1ccc(-c2nc(-c3ccncc3)c(-c3ccc(F)cc3)[nH]2)cc1", "note": "(stereo not shown) [SB203580]", "values": [{"measurement": "decrease of Protandim®-mediated increase in HO-1 expression in presence of inhibitor", "setting": "HO-1 [2]; [9]", "value": 50, "unit": "%"}]}
{"smiles": "Oc1c2ccccc2c2c3c(cccc13)N=N2", "note": "[SP600125]", "values": [{"measurement": "effect of inhibitor on Protandim®-induced increase in HO-1 protein levels", "setting": "HO-1 [2]; [8]", "value": "No significant effect"}]}
{"smiles": "N#CC(=C(/N)Sc1ccccc1N)/C(C#N)=C(\\N)Sc1ccccc1N", "note": "[U0126]", "values": [{"measurement": "effect of inhibitor on Protandim®-induced increase in HO-1 protein levels", "setting": "HO-1 [2]", "value": "No significant effect"}]}
{"smiles": "CC1=C(CO)C(=O)O[C@@H]([C@@H](C)[C@H]2CC[C@H]3[C@@H]4C[C@H]5O[C@]56[C@@H](O)C=CC(=O)[C@]6(C)[C@H]4CC[C@]23C)C1", "note": "[Withaferin A]", "values": [{"measurement": "concentration providing maximal fold induction of luciferase (Cmax)", "setting": "Nrf2; AREc32 cells, 18 h", "value": 2100, "unit": "nM"}, {"measurement": "concentration providing maximal fold induction of luciferase (Cmax)", "setting": "Nrf2; AREc32 cells, 18 h, ethanolic extract", "value": 1000, "unit": "ng/mL"}]}
{"smiles": "COC(=O)[C@]12CCC(C)(C)C[C@H]1[C@H]1C(=O)C=C3[C@@]4(C)C=C(C#N)C(=O)C(C)(C)[C@@H]4CC[C@@]3(C)[C@]1(C)CC2", "note": "[bardoxolone methyl]", "values": [{"measurement": "maximal fold induction observed (FImax)", "setting": "Nrf2", "value": 67, "unit": "fold"}, {"measurement": "lower end of concentration range producing near maximal FI", "setting": "Nrf2; [10]", "value": "less than 40 nM"}, {"measurement": "upper end of concentration range producing near maximal FI", "setting": "Nrf2; [10]", "value": 0.4, "unit": "µM"}]}
{"smiles": "CC(=O)c1c(O)c(C)c(O)c(Cc2c(O)c3c(c(C(=O)/C=C/c4ccccc4)c2O)OC(C)(C)C=C3)c1O", "note": "[rottlerin]", "values": [{"measurement": "decrease of Protandim®-mediated increase in HO-1 expression in presence of inhibitor", "setting": "HO-1 [2]; [9]", "value": 50, "unit": "%"}]}
{"smiles": "C[S+]([O-])CCCCN=C=S", "note": "(stereo not shown) [sulforaphane]", "values": [{"measurement": "maximal fold induction observed (FImax)", "setting": "Nrf2; human, 18 h", "value": 21, "unit": "fold"}]}
{"smiles": "CC(C)(C)c1cc(O)ccc1O", "note": "[tert-butyl-hydroquinone]", "values": [{"measurement": "increase of luciferase activity", "setting": "Nrf2; AREc32 cells, 50 μmol/L", "value": "up to 50 fold"}]}
